The source of these data is patent US11464750B2, “Anticancer agent and use thereof” (priority 2017, dated 2022).

Format in all cases: cell-based, human
The subject of one assay is BALL-1 cells. In words: MTT assay, BALL-1 cells. To be noted: 0.01, 0.05, 0.1, 0.5, and 1 μM, 48 hours. The method, then:
BALL-1 cells of a cell line derived from […], TKG0210 cells of a human myeloid leukemia cell line, and TKG0377 cells of a human T cell acute leukemia cell line were seeded in 96-well plates at 2.5×10^4 cells/well/100 μL, and cultured for 48 hours in the presence of 3EZ,20Ac-ingenol at final concentrations of 0 (control), 0.5, 1, 5, and 10 μM. Subsequently, cell proliferation was examined by MTT assay using a Cell Proliferation Kit 1 (Roche Applied Science).
BALL-1 cells were exposed to 3EZ,20Ac-ingenol, 3EE,20Ac-ingenol, 20Ac-ingenol, and ingenol at concentrations of 0.01, 0.05, 0.1, 0.5, and 1 μM for 48 hours. Thereafter, cell proliferation was examined by MTT assay. Cells that were not exposed to the chemical were used as controls. The chemical formulas of 3EZ,20Ac-ingenol, 3EE,20Ac-ingenol, and 20Ac-ingenol are as described above. The chemical formula of ingenol is shown in the following Formula (7).

The subject of a further assay is Panc-1 cells. The assay can be described thus: MTT assay, Panc-1 cells. As to conditions: irinotecan, 48 hours. The method, then:
(§1) JeKo-1 cells of a cell line derived from a human mantle cell lymphoma were seeded in a 96-well plate at 1×10^4 cells/well/100 μL. In addition, Panc-1 cells of a cell line derived from a human pancreatic cancer were seeded in a 96-well plate at 3×10^3 cells/well/100 μL.
(§2) Subsequently, 3EZ,20Ac-ingenol at final concentrations of 0 (control), 0.1, 0.5, 1, 5, and 10 μM was added the wells of the respective cells, and culturing was performed for 48 hours. Subsequently, cell proliferation was examined by MTT assay using a Cell Proliferation Kit I (Roche Applied Science).
(§3) First, JeKo-1 cells were seeded in a 96-well plate at 1×10^4 cells/well/100 μL. Subsequently, irinotecan at a final concentration of 0 (control), 0.5, 1, 5, 10, 20, and 30 μM was added to the wells of the cells and culturing was performed for 48 hours. In addition, Panc-1 cells were seeded in a 96-well plate at 3×10^3 cells/well/100 μL. Subsequently, irinotecan at a final concentration of 0 (control), 0.5, 1, 5, 10, 20, 30, and 50 μM was added to the wells of the cells and culturing was performed for 48 hours. Subsequently, cell proliferation was examined by MTT assay using a Cell Proliferation Kit I (Roche Applied Science).

Another assay deals with JeKo-1 cells. In words: MTT assay, JeKo-1 cells. As to conditions: 48 hours. The method, then: as §1, §2, §3

As for `CCCCC/C=C/C=C/C(=O)O[C@H]1C(C)=C[C@]23C(=O)[C@@H](C=C(COC(C)=O)[C@@H](O)[C@]12O)[C@H]1[C@@H](C[C@H]3C)C1(C)C` [3EE,20Ac-ingenol], in the assay with BALL-1 cells, the “inhibition of proliferation of the BALL-1 cells” value (“inhibition … of the BALL-1 cells” for short) was “a significant level of inhibition of proliferation”.

In the case of `CC(=O)OCC1=C[C@@H]2C(=O)C3(C=C(C)[C@H](O)[C@@]3(O)[C@@H]1O)[C@H](C)C[C@@H]1[C@H]2C1(C)C` [20Ac-ingenol], the “inhibition … of the BALL-1 cells” value in the assay with BALL-1 cells is on record as “inhibition of proliferation of the BALL-1 cells was observed”.

As for `CC1=C[C@]23C(=O)[C@@H](C=C(CO)[C@@H](O)[C@]2(O)[C@H]1O)[C@H]1[C@@H](C[C@H]3C)C1(C)C` [ingenol, reference compound], the “inhibition … of the BALL-1 cells” value in the assay on BALL-1 cells is “little effect on proliferation”.

With `CCc1c2c(nc3ccc(OC(=O)N4CCC(N5CCCCC5)CC4)cc13)-c1cc3c(c(=O)n1C2)COC(=O)[C@]3(O)CC` [irinotecan, reference compound], the “resistance of Panc-1 cells” value in the assay with Panc-1 cells is on record as “showed resistance”. Moreover, the “proliferation inhibition of JeKo-1 cells” value in the assay with JeKo-1 cells (1 to 20 μM of irinotecan) was “grown cells were almost eliminated”. Besides, the half-inhibitory concentration (IC50) with JeKo-1 cells (Homo sapiens, JeKo-1, MTT assay, read-out: IC50 with respect to the JeKo-1 cells) stood at 5 µM.

What is called IC50 is the concentration that gives 50% inhibition.
